Data reported in US7994140B2, “Classes of compounds that interact with GPCRs” (Alchemia Limited, priority 2002, dated 2011).

What follows are compounds tested against T1, MC4 (Homo sapiens, UniProt P32245) (assay: GPCR radioligand binding (RLB) assay, melanocortin MC4, [125I]NDP-αMSH). Details: 10 micromolar compound; recombinant human receptor membranes (HEK 293).
T1 construct: purchased Perkin Elmer BioSignal; host or cells: HEK 293
In short: (§1)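 Competition binding against radioligand ([125I]NDP-αMSH for MC4, [125I]SST-14 for SST5) on membranes of HEK 293 cells carrying the human receptor; buffer and incubation time optimized per receptor. Filtration through 0.5% PEI-treated glass fiber, washing, then scintillation counting.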

T1 sequence (P32245 whole entry): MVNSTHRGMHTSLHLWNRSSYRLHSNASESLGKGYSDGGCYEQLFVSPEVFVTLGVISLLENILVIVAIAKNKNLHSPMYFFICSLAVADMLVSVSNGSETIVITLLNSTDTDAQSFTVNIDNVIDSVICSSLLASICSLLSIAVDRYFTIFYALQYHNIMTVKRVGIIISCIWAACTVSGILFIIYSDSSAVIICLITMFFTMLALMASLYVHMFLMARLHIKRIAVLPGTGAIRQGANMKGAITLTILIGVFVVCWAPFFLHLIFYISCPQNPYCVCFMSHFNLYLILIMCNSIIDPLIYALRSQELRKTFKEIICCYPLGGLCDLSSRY

Compound	MC4 inhibition at 10 micromolar
COC1C(O)C(COCc2ccc3ccccc3c2)OC(OCc2ccc(-c3ccccc3)cc2)C1NC(=O)CCCN (stereo not drawn) [Compound 61]	+ (Indicates inhibition greater than . . . 50%)
CO[C@H]1[C@H](O)[C@@H](COCc2ccc3ccccc3c2)OC(OCCc2ccccc2)[C@@H]1NC(=O)CCCN (stereo partly drawn) [Compound 102]	+ (Indicates inhibition greater than . . . 50%)
CSC1OC(COCc2ccc(-c3ccccc3)cc2)C(O)C(OCc2ccccc2)C1NC(=O)CCCN (stereo not drawn) [Compound 135]	+ (Indicates inhibition greater than . . . 50%)
CSC1OC(COCc2ccc3ccccc3c2)C(O)C(OCc2ccc(-c3ccccc3)cc2)C1NC(=O)CCN (stereo not drawn) [Compound 187]	+ (Indicates inhibition greater than . . . 50%)
CSC1O[C@H](COCc2cccc(N)c2)[C@@H](O)[C@H](OCc2ccc(Cl)cc2)[C@H]1NC(=O)Cc1ccccc1 (stereo partly drawn) [Compound 339]	+ (Indicates inhibition greater than . . . 50%)
CSC1OC(COCc2ccccc2)C(O)C(OCc2ccc(Cl)cc2)C1NC(=O)CCN (stereo not drawn) [Compound 145]	+ (Indicates inhibition greater than . . . 50%)
CSC1OC(COCc2ccc(-c3ccccc3)cc2)C(O)C(OCc2ccc(-c3ccccc3)cc2)C1NC(=O)CCCN (stereo not drawn) [Compound 183]	+ (Indicates inhibition greater than . . . 50%)
CSC1OC(COCc2ccc(Cl)cc2)C(O)C(OCc2ccc(Cl)cc2)C1NC(=O)CCN (stereo not drawn) [Compound 151]	+ (Indicates inhibition greater than . . . 50%)
CSC1OC(COCc2ccc(-c3ccccc3)cc2)C(O)C(OCc2ccc(-c3ccccc3)cc2)C1NC(=O)CCN (stereo not drawn) [Compound 181]	+ (Indicates inhibition greater than . . . 50%)
COC[C@H]1OC(OCc2ccc(-c3ccccc3)cc2)[C@H](NC(=O)CCCN)[C@@H](OCc2ccc(-c3ccccc3)cc2)[C@@H]1O (stereo partly drawn) [Compound 28]	+ (Indicates inhibition greater than . . . 50%)
COC[C@H]1OC(OCc2ccc3ccccc3c2)[C@H](NC(=O)CCCNC(=N)N)[C@@H](OCc2ccc3ccccc3c2)[C@@H]1O (stereo partly drawn) [Compound 40]	+ (Indicates inhibition greater than . . . 50%)
CSC1OC(COCc2ccc(-c3ccccc3)cc2)C(O)C(OCc2ccc3ccccc3c2)C1NC(=O)CCNC(=N)N (stereo not drawn) [Compound 206]	+ (Indicates inhibition greater than . . . 50%)
CSC1OC(COCc2ccc(-c3ccccc3)cc2)C(O)C(OCc2ccc(Cl)cc2)C1NC(=O)CCCN (stereo not drawn) [Compound 159]	+ (Indicates inhibition greater than . . . 50%)
COC[C@H]1OC(OCc2ccc3ccccc3c2)[C@H](NC(=O)CCCN)[C@@H](OCc2ccc(-c3ccccc3)cc2)[C@@H]1O (stereo partly drawn) [Compound 37]	+ (Indicates inhibition greater than . . . 50%)
CO[C@H]1[C@H](O)[C@@H](COCc2ccc3ccccc3c2)OC(OCCc2ccccc2)[C@@H]1NC(=O)CCCNC(=N)N (stereo partly drawn) [Compound 103]	+ (Indicates inhibition greater than . . . 50%)
CSC1OC(COCc2ccc(Cl)cc2)C(O)C(OCc2ccc(-c3ccccc3)cc2)C1NC(=O)CNC(=N)N (stereo not drawn) [Compound 174]	+ (Indicates inhibition greater than . . . 50%)
CSC1OC(COCc2ccccc2)C(O)C(OCc2ccc3ccccc3c2)C1NC(=O)CNC(=N)N (stereo not drawn) [Compound 192]	+ (Indicates inhibition greater than . . . 50%)
CSC1OC(COCc2ccc3ccccc3c2)C(O)C(OCc2ccc(-c3ccccc3)cc2)C1NC(=O)CCCN (stereo not drawn) [Compound 189]	+ (Indicates inhibition greater than . . . 50%)

What follows are compounds tested against T2, SST5 (Homo sapiens, UniProt P35346) (assay: GPCR radioligand binding (RLB) assay, somatostatin SST5, [125I]SST-14). Details: 10 micromolar compound; Example Library 8.
T2 construct: purchased Perkin Elmer BioSignal; host or cells: HEK 293
In short: as §1

T2 sequence (P35346 whole entry): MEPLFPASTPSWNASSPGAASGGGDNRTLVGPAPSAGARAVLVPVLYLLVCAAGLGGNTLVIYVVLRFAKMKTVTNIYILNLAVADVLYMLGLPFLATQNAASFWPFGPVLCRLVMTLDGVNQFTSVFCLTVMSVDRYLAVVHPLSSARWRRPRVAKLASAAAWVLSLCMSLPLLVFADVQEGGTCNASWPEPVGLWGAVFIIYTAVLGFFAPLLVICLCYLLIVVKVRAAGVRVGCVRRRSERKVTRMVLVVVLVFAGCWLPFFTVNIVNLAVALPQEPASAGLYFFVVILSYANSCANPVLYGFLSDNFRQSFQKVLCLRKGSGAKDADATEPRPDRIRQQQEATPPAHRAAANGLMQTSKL

Compound	SSTS inhibition at 10 micromolar
CSC1O[C@H](COCc2cccc(N)c2)[C@@H](O)[C@H](OCc2ccc(Cl)cc2)[C@H]1NC(=O)Cc1ccccc1 (stereo partly drawn) [Compound 339]	+ (Indicates inhibition greater than . . . 50%)

Same assay, conditions: 10 micromolar compound; recombinant human receptor membranes (HEK 293)

Compound	SST5 inhibition at 10 micromolar
COC1C(O)C(COCc2ccc3ccccc3c2)OC(OCc2ccc(-c3ccccc3)cc2)C1NC(=O)CCCN (stereo not drawn) [Compound 61]	+ (Indicates inhibition greater than . . . 50%)
CO[C@H]1[C@H](O)[C@@H](COCc2ccc3ccccc3c2)OC(OCCc2ccccc2)[C@@H]1NC(=O)CCCN (stereo partly drawn) [Compound 102]	+ (Indicates inhibition greater than . . . 50%)
CSC1OC(COCc2ccc(-c3ccccc3)cc2)C(O)C(OCc2ccccc2)C1NC(=O)CCCN (stereo not drawn) [Compound 135]	+ (Indicates inhibition greater than . . . 50%)
CSC1OC(COCc2ccc3ccccc3c2)C(O)C(OCc2ccc(-c3ccccc3)cc2)C1NC(=O)CCN (stereo not drawn) [Compound 187]	+ (Indicates inhibition greater than . . . 50%)
CSC1OC(COCc2ccccc2)C(O)C(OCc2ccc(Cl)cc2)C1NC(=O)CCN (stereo not drawn) [Compound 145]	+ (Indicates inhibition greater than . . . 50%)
CSC1OC(COCc2ccc(-c3ccccc3)cc2)C(O)C(OCc2ccc(-c3ccccc3)cc2)C1NC(=O)CCCN (stereo not drawn) [Compound 183]	+ (Indicates inhibition greater than . . . 50%)
CSC1OC(COCc2ccc(Cl)cc2)C(O)C(OCc2ccc(Cl)cc2)C1NC(=O)CCN (stereo not drawn) [Compound 151]	+ (Indicates inhibition greater than . . . 50%)
CSC1OC(COCc2ccc(-c3ccccc3)cc2)C(O)C(OCc2ccc(-c3ccccc3)cc2)C1NC(=O)CCN (stereo not drawn) [Compound 181]	+ (Indicates inhibition greater than . . . 50%)
COC[C@H]1OC(OCc2ccc(-c3ccccc3)cc2)[C@H](NC(=O)CCCN)[C@@H](OCc2ccc(-c3ccccc3)cc2)[C@@H]1O (stereo partly drawn) [Compound 28]	+ (Indicates inhibition greater than . . . 50%)
COC[C@H]1OC(OCc2ccc3ccccc3c2)[C@H](NC(=O)CCCNC(=N)N)[C@@H](OCc2ccc3ccccc3c2)[C@@H]1O (stereo partly drawn) [Compound 40]	+ (Indicates inhibition greater than . . . 50%)
CSC1OC(COCc2ccc(-c3ccccc3)cc2)C(O)C(OCc2ccc3ccccc3c2)C1NC(=O)CCNC(=N)N (stereo not drawn) [Compound 206]	+ (Indicates inhibition greater than . . . 50%)
CSC1OC(COCc2ccc(-c3ccccc3)cc2)C(O)C(OCc2ccc(Cl)cc2)C1NC(=O)CCCN (stereo not drawn) [Compound 159]	+ (Indicates inhibition greater than . . . 50%)
COC[C@H]1OC(OCc2ccc3ccccc3c2)[C@H](NC(=O)CCCN)[C@@H](OCc2ccc(-c3ccccc3)cc2)[C@@H]1O (stereo partly drawn) [Compound 37]	+ (Indicates inhibition greater than . . . 50%)
CO[C@H]1[C@H](O)[C@@H](COCc2ccc3ccccc3c2)OC(OCCc2ccccc2)[C@@H]1NC(=O)CCCNC(=N)N (stereo partly drawn) [Compound 103]	+ (Indicates inhibition greater than . . . 50%)
CSC1OC(COCc2ccc(Cl)cc2)C(O)C(OCc2ccc(-c3ccccc3)cc2)C1NC(=O)CNC(=N)N (stereo not drawn) [Compound 174]	+ (Indicates inhibition greater than . . . 50%)
CSC1OC(COCc2ccccc2)C(O)C(OCc2ccc3ccccc3c2)C1NC(=O)CNC(=N)N (stereo not drawn) [Compound 192]	+ (Indicates inhibition greater than . . . 50%)
CSC1OC(COCc2ccc3ccccc3c2)C(O)C(OCc2ccc(-c3ccccc3)cc2)C1NC(=O)CCCN (stereo not drawn) [Compound 189]	+ (Indicates inhibition greater than . . . 50%)
